Assay [1] concerns the target T1, His tagged PTPN2 (TC45) protein (Homo sapiens, UniProt P17706).
T1 construct: made in house
T1 sequence (P17706 with tags, fused parts or gaps isoform P17706-2): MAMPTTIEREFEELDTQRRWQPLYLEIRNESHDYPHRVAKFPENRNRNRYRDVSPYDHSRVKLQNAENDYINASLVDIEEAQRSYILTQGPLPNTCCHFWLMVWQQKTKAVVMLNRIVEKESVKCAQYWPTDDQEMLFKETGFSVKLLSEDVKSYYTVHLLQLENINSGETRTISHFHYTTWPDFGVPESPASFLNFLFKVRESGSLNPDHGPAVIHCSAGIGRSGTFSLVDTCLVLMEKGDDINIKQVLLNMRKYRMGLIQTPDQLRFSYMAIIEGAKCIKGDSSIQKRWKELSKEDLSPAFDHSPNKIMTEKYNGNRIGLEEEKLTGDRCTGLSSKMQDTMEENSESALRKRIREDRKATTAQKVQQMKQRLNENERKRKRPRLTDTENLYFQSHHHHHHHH
As to the kind of experiment: Mobility shift assay (MSA) for potency of PTPN2 inhibitors. It is filed as biochemical. As to conditions: read-out: PTPN2 MSA IC50. In short, it runs like this:
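His-tagged PTPN2 TC45 (0.5 nM) was preincubated with compound (12-point, 1:3) for 10 min at room temperature in 50 mM HEPES pH 7.5, 1 mM EGTA, 10 mM EDTA, 0.01% Tween 20, 2 mM DTT. OG488-labelled phospho-insulin-receptor peptide ([…]) was then added for 10 min. After quenching, dephosphorylation was measured by microfluidic mobility shift and IC50 derived from % inhibition.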

Assay [2] concerns B16F10 mouse melanoma cells. In words: B16F10 IFNγ-induced cellular growth inhibition assay. In kind it is cell-based. As to conditions: Mus musculus, B16-F10, 33 μM compound. As for the experimental part: B16F10 mouse melanoma cells (ATCC Cat ^#CRL-6475, Manassas, Va.) were seeded at a density of 500 cells per well in a 384-well clear bottom plate (Corning Cat^# 3765, Corning, N.Y.) in 25 μL total volume of DMEM+10% FBS (Sigma Cat ^#D6429 and Sigma Cat ^#F4135, St. Louis, Mo.). Cells were allowed to adhere overnight at 37° C.+5% CO2. On the following day, 12.5 μL of mouse IFNγ (RD systems Cat485-MI/CF, Minneapolis, Minn.) was added to half of the plate (columns 13-24) at a concentration of 2 ng/mL for a final assay concentration of 0.5 ng/mL of IFNγ. Media only (12.5 μL of DMEM+10% FBS) was added to the remainder of the plate (columns 1-12). Next, compounds resuspended in DMSO (Sigma Cat ^#D2650) at 100 mM were diluted in semi-log dilutions in DMSO ranging from 100 mM to 0.001 mM and DMSO only controls were included. The compound/DMSO dilutions were further diluted 1:250 in DMEM+10% FBS, and 12.5 μL of these dilutions were added in triplicates to cells of both treatment arms (with and without IFNγ). Final compound concentrations ranged from 100 μM to 0.001 μM with a final DMSO concentration of 0.1%. Compounds were only dosed in the inner 240 wells, avoiding the outer 2-well perimeter of the plate to minimize edge effects. Finally, the plate was loaded into an IncuCyte® S3 Live Cell Analysis System (Essen Bioscience-Sartorius, Ann Arbor, Mich.) maintained in a 37° C.+5% CO2 incubator, allowed to equilibrate for 2 hours, and imaged every 6 hours for 5 days. Confluence over time for compound dilutions in the presence and absence of IFNγ was measured. Growth inhibition values were obtained when the “DMSO/no IFNγ” control reached confluence >95%. At these time points, the percent growth inhibition of each compound at the indicated concentration was calculated relative to the “DMSO/with IFNγ” control.

Where [3] appears, read: +0.5 ng/mL IFNγ, relative to DMSO control, read-out: % B16F10 growth inhibition (+0.5 ng/mL IFNγ) @ 33 μM.
[4] abbreviates: no IFNγ, read-out: % B16F10 growth inhibition (no IFNγ) @ 33 μM.

The results in this text go back to US20210009542A1 (Calico Life Sciences LLC, priority 2018, published 2021).

The term IC50 denotes the concentration that gives 50% inhibition.

Like-named read-outs stand apart in the source and are kept apart here.

`N#CC1(CCOc2ccc3cc(O)c(N4CC(=O)NS4(=O)=O)c(F)c3c2)CC1` [Compound 159, 1-(2-{[8-fluoro-6-hydroxy-7-(1,1,4-trioxo-1λ^6,2,5-thiadiazolidin-2-yl)naphthalen-2-yl]oxy}ethyl)cyclopropane-1-carbonitrile]: in assay [1], the IC50 was < 1 nM. Moreover, the inhibition at 33 µM is > 90% in assay [2] (setting [3]) and < 25% in assay [2] (setting [4]).

On to `CNCC(C)(C)CCOc1ccc2cc(O)c(N3CC(=O)NS3(=O)=O)c(F)c2c1` [Compound 163, 5-{7-[3,3-dimethyl-4-(methylamino)butoxy]-1-fluoro-3-hydroxynaphthalen-2-yl}-1λ^6,2,5-thiadiazolidine-1,1,3-trione], for which, in assay [1], the IC50 is < 1 nM. Further, the inhibition at 33 µM in assay [2] (setting [3]) was > 90%; in assay [2] (setting [4]), < 25%.

For the molecule `O=C1CN(c2c(O)cc3ccc(NCCc4ccccc4)cc3c2F)S(=O)(=O)N1` [Compound 164, 5-{1-fluoro-3-hydroxy-7-[(2-phenylethyl)amino]naphthalen-2-yl}-1λ^6,2,5-thiadiazolidine-1,1,3-trione], the IC50 in assay [1] is < 1 nM. In addition, the results for the inhibition at 33 µM in assay [2] (setting [3]) and in assay [2] (setting [4]) were > 90% and < 25%, respectively.

Regarding `CC(C)(N)CCOc1ccc2cc(O)c(N3CC(=O)NS3(=O)=O)c(F)c2c1` [Compound 165, 5-[7-(3-amino-3-methylbutoxy)-1-fluoro-3-hydroxynaphthalen-2-yl]-1λ^6,2,5-thiadiazolidine-1,1,3-trione], in assay [1], the IC50 lay in the range of 1 to 10 nM. Further, the values for the inhibition at 33 µM in assay [2] (setting [3]) and in assay [2] (setting [4]) were > 90% and < 25%, respectively.

On to `O=C1CN(c2c(O)cc3ccc(NCCCC(F)(F)F)cc3c2F)S(=O)(=O)N1` [Compound 166, 5-{1-fluoro-3-hydroxy-7-[(4,4,4-trifluorobutyl)amino]naphthalen-2-yl}-1λ^6,2,5-thiadiazolidine-1,1,3-trione], for which, in assay [1], the IC50 is 1 to 10 nM. The inhibition at 33 µM is > 90% in assay [2] (setting [3]) and < 25% in assay [2] (setting [4]).

For the molecule `O=C1CN(c2c(O)cc3ccc(C(F)F)cc3c2F)S(=O)(=O)N1` [Compound 167, 5-[7-(difluoromethyl)-1-fluoro-3-hydroxynaphthalen-2-yl]-1λ^6,2,5-thiadiazolidine-1,1,3-trione], the IC50 in assay [1] was in the range of 10 to 100 nM. For the same molecule, the inhibition at 33 µM in assay [2] (setting [3]) was 60 to 90%; in assay [2] (setting [4]), < 25%.

Take `CP(C)(=O)N1CC=C(c2ccc3cc(O)c(N4CC(=O)NS4(=O)=O)c(F)c3c2)C1` [Compound 168, 5-{7-[1-(dimethylphosphoryl)-2,5-dihydro-1H-pyrrol-3-yl]-1-fluoro-3-hydroxynaphthalen-2-yl}-1λ^6,2,5-thiadiazolidine-1,1,3-trione]: the IC50 in assay [1] was < 1 nM. For the same molecule, the inhibition at 33 µM in assay [2] (setting [3]) was > 90%; in assay [2] (setting [4]), < 25%.

Consider `O=C1CN(c2c(O)cc3ccc(NCCC(F)(F)F)cc3c2F)S(=O)(=O)N1` [Compound 169, 5-{1-fluoro-3-hydroxy-7-[(3,3,3-trifluoropropyl)amino]naphthalen-2-yl}-1λ^6,2,5-thiadiazolidine-1,1,3-trione], for which the IC50 in assay [1] was in the range of 1 to 10 nM. The inhibition at 33 µM in assay [2] (setting [3]) was > 90%; in assay [2] (setting [4]), < 25%.

For the molecule `COC(C)(C)CCOc1ccc2cc(O)c(N3CC(=O)NS3(=O)=O)c(F)c2c1` [Compound 170, 5-[1-fluoro-3-hydroxy-7-(3-methoxy-3-methylbutoxy)naphthalen-2-yl]-1λ^6,2,5-thiadiazolidine-1,1,3-trione], in assay [1], the IC50 is < 1 nM. Also, the inhibition at 33 µM is 60 to 90% in assay [2] (setting [3]) and < 25% in assay [2] (setting [4]).

For the molecule `N#CCCCNc1ccc2cc(O)c(N3CC(=O)NS3(=O)=O)c(F)c2c1` [Compound 174, 4-{[8-fluoro-6-hydroxy-7-(1,1,4-trioxo-1λ^6,2,5-thiadiazolidin-2-yl)naphthalen-2-yl]amino}butanenitrile], the IC50 in assay [1] was in the range of 1 to 10 nM. For the same molecule, the inhibition at 33 µM in assay [2] (setting [3]) is > 90%; in assay [2] (setting [4]) it was < 25%.

As for `CC(C)(CN)CCOc1ccc2cc(O)c(N3CC(=O)NS3(=O)=O)c(F)c2c1` [Compound 176, 5-[7-(4-amino-3,3-dimethylbutoxy)-1-fluoro-3-hydroxynaphthalen-2-yl]-1λ^6,2,5-thiadiazolidine-1,1,3-trione], in assay [1], the IC50 was in the range of 1 to 10 nM. Moreover, the inhibition at 33 µM in assay [2] (setting [3]) was > 90%; in assay [2] (setting [4]), < 25%.

Regarding `O=C1CN(c2c(O)cc3ccc(NCCN4CCC4)cc3c2F)S(=O)(=O)N1` [Compound 177, 5-(7-{[2-(azetidin-1-yl)ethyl]amino}-1-fluoro-3-hydroxynaphthalen-2-yl)-1λ^6,2,5-thiadiazolidine-1,1,3-trione], the IC50 in assay [1] was in the range of 1 to 10 nM. The inhibition at 33 µM in assay [2] (setting [3]) is > 90%; in assay [2] (setting [4]) it was < 25%.

Regarding `O=C1CN(c2c(O)cc3ccc(OC4CN(S(=O)(=O)C5CC5)C4)cc3c2F)S(=O)(=O)N1` [Compound 178, 5-(7-{[1-(cyclopropanesulfonyl)azetidin-3-yl]oxy}-1-fluoro-3-hydroxynaphthalen-2-yl)-1λ^6,2,5-thiadiazolidine-1,1,3-trione], the IC50 in assay [1] lay in the range of 1 to 10 nM. Further, the inhibition at 33 µM in assay [2] (setting [3]) was 60 to 90%; in assay [2] (setting [4]), < 25%.

As to `COCCNc1ccc2cc(O)c(N3CC(=O)NS3(=O)=O)c(F)c2c1` [Compound 179, 5-{1-fluoro-3-hydroxy-7-[(2-methoxyethyl)amino]naphthalen-2-yl}-1λ^6,2,5-thiadiazolidine-1,1,3-trione], the IC50 in assay [1] is 10 to 100 nM. In addition, the values for the inhibition at 33 µM in assay [2] (setting [3]) and in assay [2] (setting [4]) were > 90% and < 25%, respectively.

Regarding `O=C1CN(c2c(O)cc3ccc(OCCC(F)(F)F)cc3c2F)S(=O)(=O)N1` [Compound 180, 5-[1-fluoro-3-hydroxy-7-(3,3,3-trifluoropropoxy)naphthalen-2-yl]-1λ^6,2,5-thiadiazolidine-1,1,3-trione], in assay [1], the IC50 lay in the range of 1 to 10 nM. Also, the inhibition at 33 µM is 60 to 90% in assay [2] (setting [3]) and < 25% in assay [2] (setting [4]).

`N#CC1(CNc2ccc3cc(O)c(N4CC(=O)NS4(=O)=O)c(F)c3c2)CC1` [Compound 181, 1-({[8-fluoro-6-hydroxy-7-(1,1,4-trioxo-1λ^6,2,5-thiadiazolidin-2-yl)naphthalen-2-yl]amino}methyl)cyclopropane-1-carbonitrile]: the IC50 in assay [1] was 1 to 10 nM. Moreover, the inhibition at 33 µM in assay [2] (setting [3]) is 60 to 90%; in assay [2] (setting [4]), < 25%.

On to `Nc1ccc(CS(=O)(=O)N2CC=C(c3ccc4cc(O)c(N5CC(=O)NS5(=O)=O)c(F)c4c3)C2)cc1` [Compound 184, 5-(7-{1-[(4-aminophenyl)methanesulfonyl]-2,5-dihydro-1H-pyrrol-3-yl}-1-fluoro-3-hydroxynaphthalen-2-yl)-1λ^6,2,5-thiadiazolidine-1,1,3-trione], for which the IC50 in assay [1] was < 1 nM. For the same molecule, the inhibition at 33 µM in assay [2] (setting [3]) is 25 to 59%; in assay [2] (setting [4]), < 25%.

As to `CC1(CCOc2ccc3cc(O)c(N4CC(=O)NS4(=O)=O)c(F)c3c2)CC1` [Compound 193, 5-{1-fluoro-3-hydroxy-7-[2-(1-methylcyclopropyl)ethoxy]naphthalen-2-yl}-1λ^6,2,5-thiadiazolidine-1,1,3-trione], the IC50 in assay [1] was < 1 nM. Moreover, the inhibition at 33 µM in assay [2] (setting [3]) is 25 to 59%; in assay [2] (setting [4]), < 25%.

`Nc1ccccc1CS(=O)(=O)N1CC=C(c2ccc3cc(O)c(N4CC(=O)NS4(=O)=O)c(F)c3c2)C1` [Compound 195, 5-(7-{1-[(2-aminophenyl)methanesulfonyl]-2,5-dihydro-1H-pyrrol-3-yl}-1-fluoro-3-hydroxynaphthalen-2-yl)-1λ^6,2,5-thiadiazolidine-1,1,3-trione]: in assay [1], the IC50 is < 1 nM. Besides, the results for the inhibition at 33 µM in assay [2] (setting [3]) and in assay [2] (setting [4]) were 60 to 90% and < 25%, respectively.
